Patent US12612412B2, “Antiviral heterocyclic compounds” (Enanta Pharmaceuticals, Inc., priority 2021, dated 2026)

What follows are molecules tested on genotype A, "Long" strain RSV (assay: RSV-A assay (CPE protection in Hep-2 cells, ATPlite readout)). Conditions: human respiratory syncytial virus, genotype A “Long” strain RSV, MOI 0.1, CPE protection, read-out: Human RSV-A (“Long”).
Type: cell-based, Human respiratory syncytial virus (HRSV)
How it was run: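 Compound effect on RSV-induced CPE: Hep-2 monolayers, MOI 0.1, duplicate 2-fold titrations, 5-day culture in 10% FBS DMEM. Readout is ATP-based luminescence, normalised to virus-only and no-virus controls, giving EC50.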

Row | Compound | EC50
1 | C[C@]1(C(N)=O)COc2c1cc([C@@](O)(CNC(=O)c1ccnc3[nH]ccc13)C(F)(F)F)nc2-c1ccc(F)cc1 [Example 369] | < 0.2 µM
2 | C[C@]1(C(N)=O)COc2c1cc([C@@](O)(CNC(=O)c1cc3cnccc3[nH]1)C(F)(F)F)nc2-c1ccc(F)cc1 [Example 370] | < 0.2 µM
3 | C[C@]1(C(N)=O)COc2c1cc([C@@](O)(CNC(=O)c1cc3ncccc3s1)C(F)(F)F)nc2-c1ccc(F)cc1 [Example 371] | > 0.2 µM
4 | C[C@]1(C(N)=O)COc2c1cc([C@@](O)(CNC(=O)c1cc(=O)[nH]c(C3CC3)n1)C(F)(F)F)nc2-c1ccc(F)cc1 [Example 372] | > 0.2 µM
5 | Cn1cc(C(=O)NC[C@](O)(c2cc3c(c(-c4ccc(F)cc4)n2)OC[C@]3(C)C(N)=O)C(F)(F)F)c2ccccc21 [Example 373] | > 0.2 µM
6 | C[C@]1(C(N)=O)COc2c1cc([C@@](O)(CNC(=O)c1cnc3nccn3c1)C(F)(F)F)nc2-c1ccc(F)cc1 [Example 374] | > 0.2 µM
7 | Cc1nc2cc(C(=O)NC[C@](O)(c3cc4c(c(-c5ccc(F)cc5)n3)OC[C@]4(C)C(N)=O)C(F)(F)F)ccc2o1 [Example 375] | > 0.2 µM
8 | C[C@]1(C(N)=O)COc2c1cc([C@@](O)(CNC(=O)c1csc3ccccc13)C(F)(F)F)nc2-c1ccc(F)cc1 [Example 376] | > 0.2 µM
9 | C[C@]1(C(N)=O)COc2c1cc([C@@](O)(CNC(=O)c1cc3cccnc3s1)C(F)(F)F)nc2-c1ccc(F)cc1 [Example 377] | > 0.2 µM
10 | C[C@]1(C(N)=O)COc2c1cc([C@@](O)(CNC(=O)c1cc3ccccc3o1)C(F)(F)F)nc2-c1ccc(F)cc1 [Example 378] | > 0.2 µM
11 | C[C@]1(C(N)=O)COc2c1cc([C@@](O)(CNC(=O)c1cc3cccc(F)c3s1)C(F)(F)F)nc2-c1ccc(F)cc1 [Example 379] | > 0.2 µM
12 | C[C@]1(C(N)=O)COc2c1cc([C@@](O)(CNC(=O)c1cnc3[nH]ccc3c1)C(F)(F)F)nc2-c1ccc(F)cc1 [Example 380] | < 0.2 µM
13 | Cc1cc(C(=O)NC[C@](O)(c2cc3c(c(-c4ccc(F)cc4)n2)OC[C@]3(C)C(N)=O)C(F)(F)F)no1 [Example 381] | > 0.2 µM
14 | C[C@]1(C(N)=O)COc2c1cc([C@@](O)(CNC(=O)c1cccc3c1OCO3)C(F)(F)F)nc2-c1ccc(F)cc1 [Example 382] | > 0.2 µM
15 | C[C@]1(C(N)=O)COc2c1cc([C@@](O)(CNC(=O)c1c[nH]c3cccnc13)C(F)(F)F)nc2-c1ccc(F)cc1 [Example 383] | > 0.2 µM
16 | C[C@]1(C(N)=O)COc2c1cc([C@@](O)(CNC(=O)c1cc3cc[nH]c3cn1)C(F)(F)F)nc2-c1ccc(F)cc1 [Example 384] | > 0.2 µM
17 | Cc1ccc2cc(C(=O)NC[C@](O)(c3cc4c(c(-c5ccc(F)cc5)n3)OC[C@]4(C)C(N)=O)C(F)(F)F)[nH]c2c1 [Example 385] | > 0.2 µM
18 | Cc1ccsc1C(=O)NC[C@](O)(c1cc2c(c(-c3ccc(F)cc3)n1)OC[C@]2(C)C(N)=O)C(F)(F)F [Example 386] | > 0.2 µM
19 | C[C@]1(C(N)=O)COc2c1cc([C@@](O)(CNC(=O)c1cc3[nH]ccc3cc1F)C(F)(F)F)nc2-c1ccc(F)cc1 [Example 387] | > 0.2 µM
20 | C[C@]1(C(N)=O)COc2c1cc([C@@](O)(CNC(=O)c1nccc3[nH]ccc13)C(F)(F)F)nc2-c1ccc(F)cc1 [Example 388] | > 0.2 µM
21 | C[C@]1(C(N)=O)COc2c1cc([C@@](O)(CNC(=O)c1cncs1)C(F)(F)F)nc2-c1ccc(F)cc1 [Example 389] | > 0.2 µM

Row | Compound | EC50
22 | Cc1cnc(C(=O)NC[C@](O)(c2cc3c(c(-c4ccc(F)cc4)n2)OC[C@]3(C)C(N)=O)C(F)(F)F)cn1 [Example 390] | > 0.2 µM
23 | C[C@]1(C(N)=O)COc2c1cc([C@@](O)(CNC(=O)c1ccc[nH]1)C(F)(F)F)nc2-c1ccc(F)cc1 [Example 391] | > 0.2 µM
24 | C[C@]1(C(N)=O)COc2c1cc([C@@](O)(CNC(=O)c1cc3ccccn3n1)C(F)(F)F)nc2-c1ccc(F)cc1 [Example 392] | > 0.2 µM
25 | C[C@]1(C(N)=O)COc2c1cc([C@@](O)(CNC(=O)c1n[nH]c3ncccc13)C(F)(F)F)nc2-c1ccc(F)cc1 [Example 393] | > 0.2 µM
26 | COc1ccc2nc(C(=O)NC[C@](O)(c3cc4c(c(-c5ccc(F)cc5)n3)OC[C@]4(C)C(N)=O)C(F)(F)F)sc2c1 [Example 394] | > 0.2 µM
27 | COc1cccc2[nH]nc(C(=O)NC[C@](O)(c3cc4c(c(-c5ccc(F)cc5)n3)OC[C@]4(C)C(N)=O)C(F)(F)F)c12 [Example 395] | > 0.2 µM
28 | C[C@]1(C(N)=O)COc2c1cc([C@@](O)(CNC(=O)c1nccs1)C(F)(F)F)nc2-c1ccc(F)cc1 [Example 396] | > 0.2 µM
29 | C[C@]1(C(N)=O)COc2c1cc([C@@](O)(CNC(=O)c1n[nH]c3ccc(F)cc13)C(F)(F)F)nc2-c1ccc(F)cc1 [Example 397] | > 0.2 µM
30 | Cc1ccc2nc(C(=O)NC[C@](O)(c3cc4c(c(-c5ccc(F)cc5)n3)OC[C@]4(C)C(N)=O)C(F)(F)F)cn2c1 [Example 398] | > 0.2 µM
31 | C[C@]1(C(N)=O)COc2c1cc([C@@](O)(CNC(=O)c1ccnc3ccccc13)C(F)(F)F)nc2-c1ccc(F)cc1 [Example 399] | > 0.2 µM
32 | C[C@]1(C(N)=O)COc2c1cc([C@@](O)(CNC(=O)c1cc3cc[nH]c3cc1F)C(F)(F)F)nc2-c1ccc(F)cc1 [Example 400] | > 0.2 µM
33 | Cn1c(C(=O)NC[C@](O)(c2cc3c(c(-c4ccc(F)cc4)n2)OC[C@]3(C)C(N)=O)C(F)(F)F)cc2ccccc21 [Example 401] | > 0.2 µM
34 | C[C@]1(C(N)=O)COc2c1cc([C@@](O)(CNC(=O)c1ccn3ccnc3c1)C(F)(F)F)nc2-c1ccc(F)cc1 [Example 402] | > 0.2 µM
35 | C[C@]1(C(N)=O)COc2c1cc([C@@](O)(CNC(=O)c1ccc3[nH]ncc3n1)C(F)(F)F)nc2-c1ccc(F)cc1 [Example 403] | > 0.2 µM
36 | C[C@]1(C(N)=O)COc2c1cc([C@@](O)(CNC(=O)c1ccco1)C(F)(F)F)nc2-c1ccc(F)cc1 [Example 404] | > 0.2 µM
37 | C[C@]1(C(N)=O)COc2c1cc([C@@](O)(CNC(=O)c1nc3cc(F)ccc3[nH]1)C(F)(F)F)nc2-c1ccc(F)cc1 [Example 405] | > 0.2 µM
38 | C[C@]1(C(N)=O)COc2c1cc([C@@](O)(CNC(=O)c1ccnnc1)C(F)(F)F)nc2-c1ccc(F)cc1 [Example 406] | > 0.2 µM
39 | Cn1ccc(C(=O)NC[C@](O)(c2cc3c(c(-c4ccc(F)cc4)n2)OC[C@]3(C)C(N)=O)C(F)(F)F)c1 [Example 407] | > 0.2 µM
40 | C[C@]1(C(N)=O)COc2c1cc([C@@](O)(CNC(=O)c1ccc(C(F)F)nc1)C(F)(F)F)nc2-c1ccc(F)cc1 [Example 408] | > 0.2 µM
41 | C[C@]1(C(N)=O)COc2c1cc([C@@](O)(CNC(=O)c1cnc3cccnn13)C(F)(F)F)nc2-c1ccc(F)cc1 [Example 409] | > 0.2 µM
42 | Cc1cncnc1C(=O)NC[C@](O)(c1cc2c(c(-c3ccc(F)cc3)n1)OC[C@]2(C)C(N)=O)C(F)(F)F [Example 410] | > 0.2 µM

Row | Compound | EC50
43 | Cn1ccc(C(=O)NC[C@](O)(c2cc3c(c(-c4ccc(F)cc4)n2)OC[C@]3(C)C(N)=O)C(F)(F)F)n1 [Example 411] | > 0.2 µM
44 | COc1ncc(F)cc1C(=O)NC[C@](O)(c1cc2c(c(-c3ccc(F)cc3)n1)OC[C@]2(C)C(N)=O)C(F)(F)F [Example 412] | > 0.2 µM
45 | C[C@]1(C(N)=O)COc2c1cc([C@@](O)(CNC(=O)c1cn3ccccc3n1)C(F)(F)F)nc2-c1ccc(F)cc1 [Example 413] | > 0.2 µM
46 | C[C@]1(C(N)=O)COc2c1cc([C@@](O)(CNC(=O)c1cc(Cl)cc3[nH]ncc13)C(F)(F)F)nc2-c1ccc(F)cc1 [Example 414] | > 0.2 µM
47 | C[C@]1(C(N)=O)COc2c1cc([C@@](O)(CNC(=O)c1cccc3[nH]ccc13)C(F)(F)F)nc2-c1ccc(F)cc1 [Example 415] | > 0.2 µM
48 | Cc1ccnnc1C(=O)NC[C@](O)(c1cc2c(c(-c3ccc(F)cc3)n1)OC[C@]2(C)C(N)=O)C(F)(F)F [Example 416] | > 0.2 µM
49 | C[C@]1(C(N)=O)COc2c1cc([C@@](O)(CNC(=O)c1ccc3nccn3n1)C(F)(F)F)nc2-c1ccc(F)cc1 [Example 417] | > 0.2 µM
50 | C[C@]1(C(N)=O)COc2c1cc([C@@](O)(CNC(=O)c1ccc3ccnn3c1)C(F)(F)F)nc2-c1ccc(F)cc1 [Example 418] | < 0.2 µM
51 | C[C@]1(C(N)=O)COc2c1cc([C@@](O)(CNC(=O)c1sc3ccccc3c1Cl)C(F)(F)F)nc2-c1ccc(F)cc1 [Example 419] | > 0.2 µM
52 | C[C@]1(C(N)=O)COc2c1cc([C@@](O)(CNC(=O)c1nc3ccccc3[nH]1)C(F)(F)F)nc2-c1ccc(F)cc1 [Example 420] | > 0.2 µM
53 | C[C@]1(C(N)=O)COc2c1cc([C@@](O)(CNC(=O)c1ccccn1)C(F)(F)F)nc2-c1ccc(F)cc1 [Example 421] | > 0.2 µM
54 | C[C@]1(C(N)=O)COc2c1cc([C@@](O)(CNC(=O)c1cc3cc(F)ccc3[nH]1)C(F)(F)F)nc2-c1ccc(F)cc1 [Example 422] | > 0.2 µM
55 | COc1ccc(C(=O)NC[C@](O)(c2cc3c(c(-c4ccc(F)cc4)n2)OC[C@]3(C)C(N)=O)C(F)(F)F)cc1C [Example 423] | > 0.2 µM
56 | Cn1nc2ccccc2c1C(=O)NC[C@](O)(c1cc2c(c(-c3ccc(F)cc3)n1)OC[C@]2(C)C(N)=O)C(F)(F)F [Example 424] | > 0.2 µM
57 | Cn1cccc1C(=O)NC[C@](O)(c1cc2c(c(-c3ccc(F)cc3)n1)OC[C@]2(C)C(N)=O)C(F)(F)F [Example 425] | > 0.2 µM
58 | C[C@]1(C(N)=O)COc2c1cc([C@@](O)(CNC(=O)c1ncc[nH]1)C(F)(F)F)nc2-c1ccc(F)cc1 [Example 426] | > 0.2 µM
59 | COc1cccc(C(=O)NC[C@](O)(c2cc3c(c(-c4ccc(F)cc4)n2)OC[C@]3(C)C(N)=O)C(F)(F)F)c1F [Example 427] | > 0.2 µM
60 | COc1ncccc1C(=O)NC[C@](O)(c1cc2c(c(-c3ccc(F)cc3)n1)OC[C@]2(C)C(N)=O)C(F)(F)F [Example 428] | > 0.2 µM
61 | C[C@]1(C(N)=O)COc2c1cc([C@@](O)(CNC(=O)c1cccc3[nH]cnc13)C(F)(F)F)nc2-c1ccc(F)cc1 [Example 429] | > 0.2 µM
